Converted amounts (≈) assume the structure as drawn.

The test system of the experiment is HCT-116. The experiment in a line: Cytotoxicity against human HCT116 cells after 72 hrs by MTS assay. The format is functional, cell-based. Conditions: HCT-116, 72 h. Background: Tetrazolium dyes change colour on reduction, which living cells bring about.
Broadly, the IC50 is the concentration that gives 50% inhibition. A higher IC50 goes with lower potency. Molecule `CCC(/C=C/[C@@H](C)[C@H]1CC[C@H]2[C@@H]3CC=C4C(=O)[C@](O)(C(=O)OC)C[C@]4(C)[C@H]3CC[C@]12C)C(C)C` (mixture of isomers) [PHORBASTERONE C] showed a half-inhibitory concentration (IC50) of 1 µg/mL. For the molecule `COC(=O)[C@]1(O)C[C@@]2(C)C(=CC[C@H]3[C@@H]4CC[C@H]([C@H](C)/C=C/C(C)C(C)C)[C@@]4(C)CC[C@@H]32)C1=O` (some centres undefined) [PHORBASTERONE A], the IC50 worked out at 1 µg/mL (≈ 2.19 µM). Take `COC(=O)[C@]1(O)C[C@@]2(C)C(=CC[C@H]3[C@@H]4CC[C@H]([C@H](C)CCCC(C)C)[C@@]4(C)CC[C@@H]32)C1=O` [PHORBASTERONE B]: the IC50 was determined as 1 µg/mL (≈ 2.25 µM). For `CCC(CC[C@@H](C)[C@H]1CC[C@H]2[C@@H]3CC=C4C(=O)[C@](O)(C(=O)OC)C[C@]4(C)[C@H]3CC[C@]12C)C(C)C` (mixture of isomers) [PHORBASTERONE D] the value was 1 µg/mL.
